In PubChem BioAssay (NCI):
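Grown in 96-well plates, cells were treated for 48 hours with each compound at five concentrations. Insufficient inhibition: endpoint recorded as highest concentration tested. The concentration for full growth arrest is given as TGI.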

Legend:
Assay in all cases: DTP human tumour cell line panel, 48 h
A498 renal = system: A498 renal
M14 melanoma = system: M14 melanoma
SF-268 CNS = system: SF-268 CNS
MDA-MB-435 = system: MDA-MB-435
HOP-62 NSCLC = system: HOP-62 NSCLC
HOP-92 NSCLC = system: HOP-92 NSCLC
OVCAR-3 ovarian = system: OVCAR-3 ovarian
CAKI-1 renal = system: CAKI-1 renal
SN12C renal = system: SN12C renal
RXF 393 renal = system: RXF 393 renal
CCRF-CEM leukemia = system: CCRF-CEM leukemia
SW-620 colon = system: SW-620 colon
SNB-19 CNS = system: SNB-19 CNS
SNB-75 CNS = system: SNB-75 CNS
UO-31 renal = system: UO-31 renal
SR leukemia = system: SR leukemia
SK-MEL-28 melanoma = system: SK-MEL-28 melanoma
OVCAR-4 ovarian = system: OVCAR-4 ovarian
NCI/ADR-RES ovarian = system: NCI/ADR-RES ovarian
LOX IMVI melanoma = system: LOX IMVI melanoma
IGROV1 ovarian = system: IGROV1 ovarian
KM12 colon = system: KM12 colon
NCI-H460 lung = system: NCI-H460 lung
NCI-H522 lung = system: NCI-H522 lung
COLO 205 colon = system: COLO 205 colon
SF-295 CNS = system: SF-295 CNS
NCI-H23 lung = system: NCI-H23 lung
HCT-15 colon = system: HCT-15 colon
OVCAR-8 ovarian = system: OVCAR-8 ovarian
MDA-N = system: MDA-N
T-47D breast = system: T-47D breast
MCF7 breast = system: MCF7 breast
PC-3 prostate = system: PC-3 prostate
UACC-62 melanoma = system: UACC-62 melanoma
HS 578T breast = system: HS 578T breast
A549 NSCLC = system: A549 NSCLC
MDA-MB-231 breast = system: MDA-MB-231 breast
TK-10 renal = system: TK-10 renal
MOLT-4 leukemia = system: MOLT-4 leukemia
HCC-2998 colon = system: HCC-2998 colon
OVCAR-5 ovarian = system: OVCAR-5 ovarian
K-562 leukemia = system: K-562 leukemia
BT-549 breast = system: BT-549 breast
HL-60(TB) leukemia = system: HL-60(TB) leukemia
NCI-H226 lung = system: NCI-H226 lung
SF-539 CNS = system: SF-539 CNS
U251 CNS = system: U251 CNS
HCT-116 colon = system: HCT-116 colon
HT29 colon = system: HT29 colon
EKVX NSCLC = system: EKVX NSCLC
SK-MEL-5 melanoma = system: SK-MEL-5 melanoma
786-0 renal = system: 786-0 renal
ACHN renal = system: ACHN renal
DU-145 prostate = system: DU-145 prostate
SK-MEL-2 melanoma = system: SK-MEL-2 melanoma
UACC-257 melanoma = system: UACC-257 melanoma
RPMI-8226 leukemia = system: RPMI-8226 leukemia
SK-OV-3 ovarian = system: SK-OV-3 ovarian
MALME-3M melanoma = system: MALME-3M melanoma

Cc1ccc(S(=O)(=O)N2CCN(CCO)CCN(S(=O)(=O)c3ccc(C)cc3)CCN(CCO)CC2)cc1
TGI (A498 renal): 62.7 µM | TGI (M14 melanoma): 31.5 µM | TGI (SF-268 CNS): > 100 µM | TGI (MDA-MB-435): 29.2 µM | TGI (HOP-62 NSCLC): 81.5 µM | TGI (HOP-92 NSCLC): 66 µM | TGI (OVCAR-3 ovarian): 44.5 µM | TGI (CAKI-1 renal): > 100 µM | TGI (SN12C renal): > 100 µM | TGI (RXF 393 renal): 82.1 µM | TGI (CCRF-CEM leukemia): 54 µM | TGI (SW-620 colon): > 100 µM | TGI (SNB-19 CNS): > 100 µM | TGI (SNB-75 CNS): 92.4 µM | TGI (UO-31 renal): > 100 µM | TGI (SR leukemia): 27.8 µM | TGI (SK-MEL-28 melanoma): 30.2 µM | TGI (OVCAR-4 ovarian): 37.6 µM | TGI (NCI/ADR-RES ovarian): 38.3 µM | TGI (LOX IMVI melanoma): 28.4 µM | TGI (IGROV1 ovarian): > 100 µM | TGI (KM12 colon): 38.6 µM | TGI (NCI-H460 lung): 28.7 µM | TGI (NCI-H522 lung): 33.2 µM | TGI (COLO 205 colon): 33.2 µM | TGI (SF-295 CNS): > 100 µM | TGI (NCI-H23 lung): 45.9 µM | TGI (HCT-15 colon): 37.2 µM | TGI (OVCAR-8 ovarian): > 100 µM | TGI (MDA-N): 93.6 µM | TGI (T-47D breast): 36.2 µM | TGI (MCF7 breast): 28.2 µM | TGI (PC-3 prostate): > 100 µM | TGI (UACC-62 melanoma): 37.7 µM | TGI (HS 578T breast): 93.4 µM | TGI (A549 NSCLC): 57 µM | TGI (MDA-MB-231 breast): 48.4 µM | TGI (TK-10 renal): > 100 µM | TGI (MOLT-4 leukemia): 57.1 µM | TGI (HCC-2998 colon): 29.7 µM | TGI (OVCAR-5 ovarian): > 100 µM | TGI (K-562 leukemia): 35.3 µM | TGI (BT-549 breast): > 100 µM | TGI (HL-60(TB) leukemia): 37.3 µM | TGI (NCI-H226 lung): > 100 µM | TGI (SF-539 CNS): 33.4 µM | TGI (U251 CNS): 72.3 µM | TGI (HCT-116 colon): 29.1 µM | TGI (HT29 colon): 26 µM | TGI (EKVX NSCLC): 39.1 µM | TGI (SK-MEL-5 melanoma): 27.3 µM | TGI (786-0 renal): 67 µM | TGI (ACHN renal): 90.9 µM | TGI (DU-145 prostate): 34.8 µM | TGI (SK-MEL-2 melanoma): 35.2 µM | TGI (UACC-257 melanoma): 25.1 µM

C/C(=C\c1ccccc1)C(=O)NCc1ccc(C(=O)NCCc2c[nH]c3ccccc23)cc1
TGI (A498 renal): > 100 µM | TGI (RPMI-8226 leukemia): > 100 µM | TGI (M14 melanoma): > 100 µM | TGI (SF-268 CNS): > 100 µM | TGI (MDA-MB-435): > 100 µM | TGI (HOP-62 NSCLC): > 100 µM | TGI (HOP-92 NSCLC): > 100 µM | TGI (OVCAR-3 ovarian): > 100 µM | TGI (CAKI-1 renal): > 100 µM | TGI (SN12C renal): > 100 µM | TGI (RXF 393 renal): > 100 µM | TGI (CCRF-CEM leukemia): > 100 µM | TGI (SW-620 colon): > 100 µM | TGI (SNB-19 CNS): > 100 µM | TGI (SNB-75 CNS): > 100 µM | TGI (UO-31 renal): > 100 µM | TGI (SR leukemia): > 100 µM | TGI (SK-MEL-28 melanoma): > 100 µM | TGI (SK-OV-3 ovarian): > 100 µM | TGI (OVCAR-4 ovarian): > 100 µM | TGI (NCI/ADR-RES ovarian): > 100 µM | TGI (LOX IMVI melanoma): > 100 µM | TGI (IGROV1 ovarian): > 100 µM | TGI (KM12 colon): > 100 µM | TGI (NCI-H460 lung): > 100 µM | TGI (NCI-H522 lung): > 100 µM | TGI (COLO 205 colon): > 100 µM | TGI (SF-295 CNS): > 100 µM | TGI (NCI-H23 lung): > 100 µM | TGI (HCT-15 colon): > 100 µM | TGI (OVCAR-8 ovarian): > 100 µM | TGI (MDA-N): > 100 µM | TGI (T-47D breast): > 100 µM | TGI (MCF7 breast): > 100 µM | TGI (PC-3 prostate): > 100 µM | TGI (UACC-62 melanoma): 53.7 µM | TGI (A549 NSCLC): > 100 µM | TGI (MDA-MB-231 breast): > 100 µM | TGI (TK-10 renal): > 100 µM | TGI (MOLT-4 leukemia): > 100 µM | TGI (MALME-3M melanoma): > 100 µM | TGI (HCC-2998 colon): 96.3 µM | TGI (OVCAR-5 ovarian): > 100 µM | TGI (K-562 leukemia): > 100 µM | TGI (BT-549 breast): > 100 µM | TGI (NCI-H226 lung): > 100 µM | TGI (SF-539 CNS): > 100 µM | TGI (U251 CNS): > 100 µM | TGI (HCT-116 colon): > 100 µM | TGI (HT29 colon): > 100 µM | TGI (EKVX NSCLC): > 100 µM | TGI (SK-MEL-5 melanoma): > 100 µM | TGI (786-0 renal): > 100 µM | TGI (ACHN renal): > 100 µM | TGI (DU-145 prostate): > 100 µM | TGI (SK-MEL-2 melanoma): > 100 µM | TGI (UACC-257 melanoma): 78.2 µM
